# According to PubChem BioAssay AID1250 (SRMLSC, 2008):
# The source made the active and inactive calls.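 How the source made its calls: active means inhibition of at least 30% at one or more tested concentrations; inactive means inhibition below 30% at every dose.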
# Assay: antiviral protection against BTV-induced cell death – arbovirus, BSR cells, confirmation (AID 1250)
# Conditions: BSR cells, Bluetongue virus CPE, ATP luminescence, 72 h; at 20 µM (top of the series)
row,SMILES,CPE inhibition
1,CCOC(=O)c1c(-c2ccc(C)cc2)csc1NC(=O)C1CC=CCC1C(=O)O (stereo not drawn),18.1% (inactive)
2,C/C(=N\NC(=O)c1c(Cl)c(C)nn1C)c1ccc(NC(=O)c2ccncc2)cc1,17.7% (inactive)
3,Oc1ccccc1CN1CCCN(Cc2ccccc2O)C1,2.17% (inactive)
4,Cc1ccc(C(=O)N/C(=C\c2cccs2)C(=O)NCc2cccnc2)cc1,10.2% (inactive)
5,O=c1c(-c2ccccc2)c[nH]n1-c1cccc([N+](=O)[O-])c1,14.9% (inactive)
6,CC1=C(C(=O)OC2CCCCCCC2)C(c2cccc(O)c2)NC(=O)N1 (stereo not drawn),7% (inactive)
7,CC(=O)c1ccc(N2CCN(C(=O)c3cc(-c4cccnc4)nc4ccc(Br)cc34)CC2)cc1,0.41% (inactive)
8,Nc1[nH]nc2nc(NCc3ccccc3)c3c(c12)CCN(Cc1ccccc1)C3,10.8% (inactive)
9,CCOC(=O)C1(CCCc2ccccc2)CCN(C2CCSCC2)CC1,11.3% (inactive)
10,CCn1nc(C)c(NC(=O)Nc2cccc(Cl)c2Cl)c1C,2.62% (inactive)
11,CC(C)(C)c1ccc(C(=O)NC(=S)NCC2CCCO2)cc1 (stereo not drawn),3.96% (inactive)
12,CN(C)C(=O)COC(=O)c1ccccc1Nc1ccc(SC(F)F)cc1,23% (inactive)
13,O=C(O)c1cnc(-c2ccccc2)nc1Sc1ccc(Cl)cc1,15.2% (inactive)
14,Oc1ccc(Br)cc1-c1cc(-c2ccccc2)n[nH]1,19.6% (inactive)
15,CCOc1ccc(-n2c(=O)[nH]c3sc4c(c3c2=O)CCCC4)cc1,16.6% (inactive)
16,COC(=O)c1ccccc1N/C=C/C(=O)c1ccc(Br)cc1,28.6% (inactive)
17,O=C1CC(c2cccc([N+](=O)[O-])c2)c2ccc3ccccc3c2N1 (stereo not drawn),8.81% (inactive)
18,COCCn1c(-c2ccccc2Cl)nc2c(c(=O)c3ccccc3n2C)c1=O,4.39% (inactive)
19,Brc1ccccc1-c1nnc(SCc2nc3ccccc3s2)o1,0.37% (inactive)
20,CCOC(=O)c1c(NC(=O)CSc2ccccc2C(=O)O)sc(C)c1C,19.3% (inactive)
21,O=c1/c(=C/c2ccc(O)c([N+](=O)[O-])c2)sc2nc3ccccc3n12,12.4% (inactive)
22,Cc1c(C(=O)NC(Cc2ccccc2)c2nc3ccccc3[nH]2)cccc1[N+](=O)[O-] (stereo not drawn),13.5% (inactive)
23,N#Cc1c(NC(=O)CSc2nnc(-c3ccccc3)o2)sc2c1CCCC2,-0.12% (inactive)

row,SMILES,CPE inhibition
1,CCCS(=O)(=O)n1nc(-c2ccc(OC)cc2OC)cc1N,-1.58% (inactive)
2,O=C(CSc1nc2nn(-c3ccccc3)c(=O)c-2c2n1CCCCC2)NCCc1ccccc1,10.8% (inactive)
3,Fc1ccccc1N1CCN(Cc2nc(-c3ccc(Cl)cc3Cl)no2)CC1,19.9% (inactive)
4,COc1ccccc1NC(=S)NCCSc1ccc(C)cc1,10.1% (inactive)
5,CC(C)C(=O)Nc1nnc(SCC(=O)N2c3ccccc3CC2C)s1 (stereo not drawn),11.5% (inactive)
6,CCc1ccc(C(=O)Nc2ccc(S(=O)(=O)Nc3nc(C)cc(C)n3)cc2)o1,24.5% (inactive)
7,O=C1CC(c2ccc(Br)cc2)NC(c2ccc(Br)cc2)C1c1ccccc1 (stereo not drawn),7.99% (inactive)
8,O=C(O)c1cnc(-c2ccccc2)nc1Sc1ccccc1Cl,11.8% (inactive)
9,Cc1ccccc1OCCSCc1nc2ccccc2[nH]1,24.9% (inactive)
10,COC(=O)c1ccc(NC(=O)c2ccccc2NS(C)(=O)=O)cc1,22.4% (inactive)
11,Cc1ccc(-n2nc(C)c(NC(=O)CCl)c2C)cc1,13.3% (inactive)
12,O=C(/C=C/c1ccc2c(c1)OCCCO2)c1ccc2ccccc2c1O,18.2% (inactive)
13,OCC1(CCOc2ccccc2)CCN(Cc2nc3ccc(F)cc3[nH]2)CC1,7.83% (inactive)
14,CCOC(=O)C1(Cc2cccc(OC)c2)CCN(Cc2cccc(OC)c2O)CC1,24.8% (inactive)
15,C/C(=N\NC(=O)c1ccccc1)c1nc2ccccc2n1C,-15.5% (inactive)
16,COc1ccccc1N1CCN(Cc2cc(C)c(C)cc2O)CC1,25.1% (inactive)
17,O=C(CSCC(=O)N1CCCCC1)OCC(=O)c1c[nH]c2ccccc12,-2.4% (inactive)
18,O=C(CSCc1ccc(Cl)cc1)Nc1cccc(C(=O)Nc2ccccc2C(=O)O)c1,23.5% (inactive)
19,CC1CCCN(C(=O)c2cccc(S(=O)(=O)Nc3cc(C(F)(F)F)ccc3Cl)c2)C1 (stereo not drawn),28.2% (inactive)
20,C=CCc1cccc2cc(C(=O)Nc3ccccc3C(=O)O)c(=O)oc12,17.4% (inactive)
21,O=c1oc(-c2ccccc2NS(=O)(=O)c2ccc3ccccc3c2)nc2ccccc12,10.9% (inactive)
22,O=C1NC(=Nc2ccc(Cl)cc2)SC1Cc1cccc(Cl)c1Cl (stereo not drawn),12.4% (inactive)
23,Cn1cc(CN2CCN(c3ccccc3)CC2)c2ccccc21,12% (inactive)

row,SMILES,CPE inhibition
1,CCC1=NN2C(=N)/C(=C\c3cccn3-c3ccc(C)cc3C)C(=O)N=C2S1,27.2% (inactive)
2,Cc1ccc(-c2cc(-c3ccccc3)no2)c(O)c1,15.6% (inactive)
3,Cc1cccc(-n2c(=O)c3c4c(sc3n3c(=S)[nH]nc23)CCC4)c1,7.97% (inactive)
4,CN1CCN(c2ccc(/C=C3\C(=O)NC(=S)N(c4cccc(Br)c4)C3=O)o2)CC1,14.7% (inactive)
5,O=C(CSc1nnc(NC(=O)c2c(F)cccc2F)s1)Nc1ccc(F)cc1,3.41% (inactive)
6,Cc1ccc(-c2csc(NC(=O)c3cccc(S(=O)(=O)N4CCN(C)CC4)c3)n2)cc1,5.05% (inactive)
7,COCCSc1nnc(NC(=O)C2CCCCC2)s1,6.07% (inactive)
8,CCn1c(COc2cccc3ccccc23)nnc1SCC(=O)OC1CCCCC1,2.2% (inactive)
9,COc1ccc(S(=O)(=O)N/N=C(/C)c2cccc(NC(=O)c3ccccc3Cl)c2)cc1,15% (inactive)
10,Cc1ccc(N2C(=O)C3CC(c4ccccc4)=C4C5C=CC(C6C(=O)N(c7ccc(C)cc7)C(=O)C56)C4C3C2=O)cc1 (stereo not drawn),11.8% (inactive)
11,CSc1ccccc1NC(=O)CO/N=C(\C)c1cc2ccccc2o1,12.9% (inactive)
12,Cc1ccccc1S(=O)(=O)Nc1ncnc2scc(-c3ccccc3)c12,20.4% (inactive)
13,CCc1ccc(C2=CC(c3cc(Br)ccc3F)n3ncnc3N2)cc1 (stereo not drawn),-5.9% (inactive)
14,O=C(Nc1cccc(NC(=O)c2cccs2)c1)c1ccco1,20.1% (inactive)
15,O=c1c(Cl)c(N2CCN(c3ccc(F)cc3)CC2)cnn1C12CC3CC(CC(C3)C1)C2,-3.76% (inactive)
16,O=c1[nH]c(=O)n(C(c2ccccc2)c2ccccc2)cc1Br,18.7% (inactive)
17,CCOc1ccc(NC(=O)Nc2cc(-c3ccccc3)sc2C(=O)OC)cc1,14.7% (inactive)
18,COc1cccc(C2=CC(c3ccc(C)cc3)n3ncnc3N2)c1 (stereo not drawn),22.6% (inactive)
19,CSc1nsc2nc(=O)c(/C=C3\C(C)=Nc4ccccc43)c(N)n12,23% (inactive)
20,COc1ccc(-c2nc(C3CCCCC3)no2)cc1OC,8.02% (inactive)
21,CC(C)(O[C@@H]1O[C@H](CO)[C@@H](O)[C@H](O)[C@H]1O)[C@H]1Cc2cc3ccc(=O)oc3cc2O1,0.22% (inactive)
22,O=C(O)c1ccccc1Nc1ccc([N+](=O)[O-])cc1,24.6% (inactive)
